From ChEMBL document CHEMBL3608278 (J Med Chem, 2015)
pIC50: −log10 of the molar value.

Experiments:
[1] = target: T1, Potassium voltage-gated channel subfamily A member 3 (Homo sapiens, UniProt P22001); type: cell-based, CHO-K1
[2] = target: T1, Potassium voltage-gated channel subfamily A member 3; experiment: cell-based; design: species or system Blood
[3] = target: T1, Potassium voltage-gated channel subfamily A member 3; design: species or system Blood

T1 sequence (P22001 whole entry): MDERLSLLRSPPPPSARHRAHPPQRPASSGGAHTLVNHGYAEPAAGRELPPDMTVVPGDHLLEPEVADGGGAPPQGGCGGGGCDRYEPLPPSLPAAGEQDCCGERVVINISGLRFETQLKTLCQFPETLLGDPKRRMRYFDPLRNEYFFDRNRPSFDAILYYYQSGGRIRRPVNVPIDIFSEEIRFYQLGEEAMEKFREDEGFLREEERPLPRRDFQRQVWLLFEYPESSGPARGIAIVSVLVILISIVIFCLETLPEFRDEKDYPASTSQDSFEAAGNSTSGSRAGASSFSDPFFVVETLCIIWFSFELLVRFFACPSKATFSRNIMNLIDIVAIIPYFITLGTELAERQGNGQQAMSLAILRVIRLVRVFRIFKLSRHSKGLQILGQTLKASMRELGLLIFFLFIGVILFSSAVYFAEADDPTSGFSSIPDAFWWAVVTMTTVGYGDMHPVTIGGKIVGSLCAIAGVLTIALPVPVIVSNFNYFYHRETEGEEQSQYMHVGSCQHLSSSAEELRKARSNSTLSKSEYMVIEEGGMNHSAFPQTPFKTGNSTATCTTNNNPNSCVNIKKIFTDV

SMILES | pIC50 [1] | pIC50 [2] | pIC50 [3]
CC[C@H](C)[C@@H]1NC(=O)[C@@H](NC(=O)[C@H](CO)NC(=O)[C@@H](N)CCCNC(=N)N)CSSC[C@@H](C(=O)O)NC(=O)[C@H]([C@@H](C)O)NC(=O)CNC(=O)[C@@H]2CSSC[C@@H]3NC(=O)[C@H](CCC(N)=O)NC(=O)[C@H](Cc4ccccc4)NC(=O)[C@H](C)NC(=O)[C@H]([C@@H](C)O)NC(=O)[C@H](CSSC[C@H](NC(=O)[C@H](Cc4ccccc4)NC(=O)[C@H](CO)NC(=O)[C@H](CC(C)C)NC(=O)[C@H](CCCNC(=N)N)NC(=O)[C@H](Cc4ccc(O)cc4)NC(=O)[C@H](CCCCN)NC(=O)[C@H](CCSC)NC(=O)[C@H](CO)NC(=O)[C@H](Cc4cnc[nH]4)NC(=O)[C@H](CCCCN)NC3=O)C(=O)N[C@@H](CCCNC(=N)N)C(=O)N[C@@H](CCCCN)C(=O)N[C@@H]([C@@H](C)O)C(=O)N2)NC(=O)[C@H](CCCNC(=N)N)NC(=O)[C@H](CO)NC(=O)[C@H](CCCCN)NC(=O)[C@@H]2CCCN2C(=O)[C@H]([C@@H](C)CC)NC(=O)[C@H]([C@@H](C)O)NC(=O)[C@H](CCC(=O)O)NC1=O | < 8.48 | 7.77 | < 7.61
CC[C@H](C)[C@@H]1NC(=O)[C@@H](NC(=O)[C@H](CO)NC(=O)[C@@H](N)CCCNC(=N)N)CSSC[C@@H](C(=O)O)NC(=O)[C@H]([C@@H](C)O)NC(=O)CNC(=O)[C@@H]2CSSC[C@@H]3NC(=O)[C@H](CCC(N)=O)NC(=O)[C@H](Cc4ccccc4)NC(=O)[C@H](C)NC(=O)[C@H]([C@@H](C)O)NC(=O)[C@H](CSSC[C@H](NC(=O)[C@H](Cc4ccccc4)NC(=O)[C@H](CO)NC(=O)[C@H](CC(C)C)NC(=O)[C@H](CCCNC(=N)N)NC(=O)[C@H](Cc4ccc(O)cc4)NC(=O)[C@H](CCCCN)NC(=O)[C@H](CCSC)NC(=O)[C@H](Cc4cccc5ccccc45)NC(=O)[C@H](Cc4cnc[nH]4)NC(=O)[C@H](CCCCN)NC3=O)C(=O)N[C@@H](CCCNC(=N)N)C(=O)N[C@@H](CCCCN)C(=O)N[C@@H]([C@@H](C)O)C(=O)N2)NC(=O)[C@H](CCCNC(=N)N)NC(=O)[C@H](CO)NC(=O)[C@H](CCCCN)NC(=O)[C@@H]2CCCN2C(=O)[C@H]([C@@H](C)CC)NC(=O)[C@H]([C@@H](C)O)NC(=O)[C@H](CC(=O)O)NC1=O | < 8.48 | < 7.00 | < 7.00
CC[C@H](C)[C@@H]1NC(=O)[C@@H](NC(=O)[C@H](CO)NC(=O)[C@@H](N)CCCNC(=N)N)CSSC[C@@H](C(=O)O)NC(=O)[C@H]([C@@H](C)O)NC(=O)CNC(=O)[C@@H]2CSSC[C@@H]3NC(=O)[C@H](CCC(N)=O)NC(=O)[C@H](Cc4ccccc4)NC(=O)[C@H](C)NC(=O)[C@H]([C@@H](C)O)NC(=O)[C@H](CSSC[C@H](NC(=O)[C@H](Cc4ccccc4)NC(=O)[C@H](CO)NC(=O)[C@H](CC(C)C)NC(=O)[C@H](CCCNC(=N)N)NC(=O)[C@H](Cc4ccc(O)cc4)NC(=O)[C@H](CCCCN)NC(=O)[C@H](CCSC)NC(=O)[C@H](CO)NC(=O)[C@H](Cc4cnc[nH]4)NC(=O)[C@H](CCC(=O)O)NC3=O)C(=O)N[C@@H](CCCNC(=N)N)C(=O)N[C@@H](CCCCN)C(=O)N[C@@H]([C@@H](C)O)C(=O)N2)NC(=O)[C@H](CCCNC(=N)N)NC(=O)[C@H](CO)NC(=O)[C@H](CCCCN)NC(=O)[C@@H]2CCCN2C(=O)[C@H]([C@@H](C)CC)NC(=O)[C@H]([C@@H](C)O)NC(=O)[C@H](CC(=O)O)NC1=O | 9.92 | 10.33 | 10.08
CC[C@H](C)[C@@H]1NC(=O)[C@@H](NC(=O)[C@H](CO)NC(=O)[C@@H](N)CCCNC(=N)N)CSSC[C@@H](C(=O)O)NC(=O)[C@H]([C@@H](C)O)NC(=O)CNC(=O)[C@@H]2CSSC[C@@H]3NC(=O)[C@H](CCC(N)=O)NC(=O)[C@H](Cc4ccccc4)NC(=O)[C@H](C)NC(=O)[C@H]([C@@H](C)O)NC(=O)[C@H](CSSC[C@H](NC(=O)[C@H](Cc4ccccc4)NC(=O)[C@H](CO)NC(=O)[C@H](CC(C)C)NC(=O)[C@H](CCCNC(=N)N)NC(=O)[C@H](Cc4ccc(O)cc4)NC(=O)[C@H](CCCNC(=N)N)NC(=O)[C@H](CCSC)NC(=O)[C@H](CO)NC(=O)[C@H](Cc4cnc[nH]4)NC(=O)[C@H](CCCCN)NC3=O)C(=O)N[C@@H](CCCNC(=N)N)C(=O)N[C@@H](CCCCN)C(=O)N[C@@H]([C@@H](C)O)C(=O)N2)NC(=O)[C@H](CCCNC(=N)N)NC(=O)[C@H](CO)NC(=O)[C@H](CCCCN)NC(=O)[C@@H]2CCCN2C(=O)[C@H]([C@@H](C)CC)NC(=O)[C@H]([C@@H](C)O)NC(=O)[C@H](CC(=O)O)NC1=O | < 8.48 | < 7.00 | < 7.00
CC[C@H](C)[C@@H]1NC(=O)[C@H]([C@@H](C)O)NC(=O)[C@H](CC(=O)O)NC(=O)[C@H](Cc2cccc3ccccc23)NC(=O)[C@@H](NC(=O)[C@H](CO)NC(=O)[C@@H](N)CCCNC(=N)N)CSSC[C@@H](C(=O)O)NC(=O)[C@H]([C@@H](C)O)NC(=O)CNC(=O)[C@@H]2CSSC[C@@H]3NC(=O)[C@H](CCC(N)=O)NC(=O)[C@H](Cc4ccccc4)NC(=O)[C@H](C)NC(=O)[C@H]([C@@H](C)O)NC(=O)[C@H](CSSC[C@H](NC(=O)[C@H](Cc4ccccc4)NC(=O)[C@H](CO)NC(=O)[C@H](CC(C)C)NC(=O)[C@H](CCCNC(=N)N)NC(=O)[C@H](Cc4ccc(O)cc4)NC(=O)[C@H](CCCCN)NC(=O)[C@H](CCSC)NC(=O)[C@H](CO)NC(=O)[C@H](Cc4cnc[nH]4)NC(=O)[C@H](CCCCN)NC3=O)C(=O)N[C@@H](CCCNC(=N)N)C(=O)N[C@@H](CCCCN)C(=O)N[C@@H]([C@@H](C)O)C(=O)N2)NC(=O)[C@H](CCCNC(=N)N)NC(=O)[C@H](CO)NC(=O)[C@H](CCCCN)NC(=O)[C@@H]2CCCN2C1=O | 9.81 | 9.56 | 9.50
CC[C@H](C)[C@@H]1NC(=O)[C@@H](NC(=O)[C@H](CO)NC(=O)[C@@H](N)CCCNC(=N)N)CSSC[C@@H](C(=O)O)NC(=O)[C@H]([C@@H](C)O)NC(=O)CNC(=O)[C@@H]2CSSC[C@@H]3NC(=O)[C@H](CCC(N)=O)NC(=O)[C@H](Cc4ccccc4)NC(=O)[C@H](C)NC(=O)[C@H]([C@@H](C)O)NC(=O)[C@H](CSSC[C@H](NC(=O)[C@H](C)NC(=O)[C@H](CO)NC(=O)[C@H](CC(C)C)NC(=O)[C@H](CCCNC(=N)N)NC(=O)[C@H](Cc4ccc(O)cc4)NC(=O)[C@H](CCCCN)NC(=O)[C@H](CCSC)NC(=O)[C@H](CO)NC(=O)[C@H](Cc4cnc[nH]4)NC(=O)[C@H](CCCCN)NC3=O)C(=O)N[C@@H](CCCNC(=N)N)C(=O)N[C@@H](CCCCN)C(=O)N[C@@H]([C@@H](C)O)C(=O)N2)NC(=O)[C@H](CCCNC(=N)N)NC(=O)[C@H](CO)NC(=O)[C@H](CCCCN)NC(=O)[C@@H]2CCCN2C(=O)[C@H]([C@@H](C)CC)NC(=O)[C@H]([C@@H](C)O)NC(=O)[C@H](CC(=O)O)NC1=O | 9.56 | 8.82 | 8.10
